Where a name gives a salt, the structure may show the parent alone.
What was measured:
Type in all cases: physicochemical
[1] = Crystallization of drug within peptide hydrogel (phase-contrast, confocal, polarized light microscopy)
Description: During hydrogel-mediated encapsulation, when used at a loading concentration of 16 mM, tofacitinib free base initially produced an opaque suspension that turned into a transparent hydrogel as the drug dissolved in the self-assembled peptide matrix at 37° C. during the first 2-3 hours. […] Approximately 10 μL of the hydrogel was then placed on a glass slide and covered with a cover slip. Phase-contrast microscopy (EVOS FL Cell Imaging System) and confocal microscopy (LSM 710) were used to characterize the drug aggregates suspended in the hydrogel matrix. Crystallinity of the aggregates was verified from polarized light microscopy at low and high magnification.
Shown in FIGS. 2A-2C are phase contrast images of tofacitinib free base encapsulated within MAX8 peptide hydrogel at the drug concentrations of 16 mM (FIG. 2A), 1.6 mM (FIG. 2B) and blank MAX8 peptide hydrogel (FIG. 2C). Shown in FIGS. 2D-2E are confocal microscopy-generated differential interference contrast images of tofacitinib free base microcrystals dispersed in MAX8 peptide gel network at a drug concentration of 16 mM.

[2] = Ex vivo drug release from peptide hydrogel into buffer
Source text: FIGS. 1A-1D: Release profiles of tofacitinib from peptide hydrogels. (FIG. 1A) Sustained release profile of tofacitinib free base vs burst release of tofacitinib citrate salt from MAX8 peptide hydrogel at early time points. (FIG. 1B) Release profiles of tofacitinib free base and citrate at longer time duration. (FIG. 1C) Variation of release profiles of tofacitinib free base based on the initial amount of drug loading. (FIG. 1D) Release profiles of tofacitinib free base from MAX1 and HLT2 peptide hydrogels. Concentration of tofacitinib free base was 16 mM. In each case, release of the drug was monitored from the hydrogel into an infinite sink (25 mM HEPES, 150 mM NaCl, pH 7.4) at 37° C. Lines are included for visual guidance.
A MAX8 peptide stock solution was prepared in glass vials by dissolving 1 mg of peptide in 50 μL of chilled sterile water. Tofacitinib free base and tofacitinib citrate (purchased from LC Laboratories, Woburn, MA) stock solutions were prepared in spectrophotometric grade DMSO with final concentrations of 100 μg/μL and 160 μg/μL, respectively. Concentration of the stock solution was determined in such a way that would maintain equal ratio of DMSO to HEPES buffered saline (HBS) (v/v) while loading equimolar concentration of tofacitinib free base and citrate into the hydrogel. Required volume of drug stock solution was added into a chilled solution of HBS (2X HBS, 50 mM HEPES, 300 mM NaCl, pH 7.4) to make the final volume as 50 μL. At this point, care was taken to avoid mixing before the peptide stock solution had been transferred to the resulting suspension. Peptide solution was added and samples were then mixed to initiate hydrogelation, resulting in a 1.0 wt % gel of a final total volume of 100 μL containing required amount of loaded drug. Tofacitinib free base was loaded to the final concentrations of 1.6, 3.2 and 16 mM. For tofacitinib citrate salt, only hydrogels with a final concentration of 16 mM loaded drug were considered for drug release studies. Samples were placed in an incubator at 37° C. for 24 hours. After 24 hours, 1 mL of 1X HBS (25 mM HEPES, 150 mM NaCl, pH 7.4) was added to the top of gel. At scheduled time points, the entire volume of buffer above the gel was removed and replaced with fresh buffer. Drug concentration was determined for each removed aliquot as a function of time by measuring absorbance at 290 nm in a UV-VIS spectrophotometer (Agilent 8453) with a standard curve constructed under similar conditions.

[3] = Release profile from MAX8 hydrogel with varying DMSO volume ratio; conditions: 16 mM, DMSO 2-30% by volume
Description: FIGS. 6A-6B: Release profile of tofacitinib from MAX8 hydrogel. (FIG. 6A) Cumulative release profiles of tofacitinib (free base) from MAX8 hydrogel containing different volume ratios of DMSO versus hydrogel. In each case, the tofacitinib stock solution was prepared in DMSO and an increasing volume of the DMSO stock was added while constituting the hydrogel. The total concentration of loaded tofacitinib was constant at 16 mM. Release profile of the drug was monitored from the hydrogel into buffer (25 mM HEPES, 150 mM NaCl, pH 7.4) at 37° C. (FIG. 6B) Release rate of tofacitinib from MAX8 hydrogel containing varying volumes of DMSO during the first 4 hours.
In each case, the tofacitinib stock solution was prepared in DMSO and an increasing volume of the DMSO stock was added while constituting the hydrogel. The total concentration of loaded tofacitinib was constant at 16 mM. The release profile of the drug was monitored from the hydrogel into buffer (25 mM HEPES, 150 mM NaCl, pH 7.4) at 37° C.

[4] = MAX8 hydrogel, 16 mM loading, 37° C.
[5] = MAX8 hydrogel, 16 mM loading, HBS pH 7.4, 37° C.

SMILES | crystallization within HLT2 hydrogel ([1]; HLT2 hydrogel, 16 mM loading) | crystallization within MAX1 hydrogel ([1]; MAX1 hydrogel, 16 mM loading) | loading concentration needed for crystallization ([1]; MAX8 hydrogel) | crystallization within MAX8 hydrogel [1, 4] | time of in situ crystallization after dissolution ([1]; MAX8 hydrogel, 16 mM, 37° C., after the first 2-3 hours) | crystallization within MAX8 hydrogel below 16 mM ([1]; MAX8 hydrogel, loading concentration below 16 mM) | period to show similar cumulative release (over 75%) ([2]; MAX8 hydrogel, 16 mM loading, crystallized state, HBS pH 7.4, 37° C.) | release profile from MAX8 hydrogel, free base vs citrate [2, 5] | release profile at lower loading compared to 16 mM ([2]; MAX8 hydrogel, 0.48, 1.6 and 3.2 mM loading) | drug released within the first 10 hours ([2]; MAX8 hydrogel, loading 0.48 to 3.2 mM, soluble (not crystallized) drug, into 25 mM HEPES, 150 mM NaCl, pH 7.4, 37° C.) | effect of decreasing the DMSO concentration on solubility [3]
C[C@@H]1CCN(C(=O)CC#N)C[C@@H]1N(C)c1ncnc2[nH]ccc12 [tofacitinib free base, 3-((3R,4R)-4-methyl-3-(methyl (7H-pyrrolo[2,3-d]pyrimidin-4-yl)amino)piperidin-1-yl)-3-oxopropanenitrile] | crystallized | crystallized | above 3.2 mM | gradually crystallized in situ | ~20 h | no visible indication of crystallization | 6 days | slower, more sustained release | more rapid release | over 75% | reduces the solubility
C[C@@H]1CCN(C(=O)CC#N)C[C@@H]1N(C)c1ncnc2[nH]ccc12 [tofacitinib citrate] | – | – | – | did not crystallize | – | – | – | released faster | – | – | –

Source: US12527870B2, “Peptide hydrogels for delivery of immunosuppressive drugs and uses thereof” (THE JOHNS HOPKINS UNIVERSITY, priority 2018, dated 2026)
